According to US11834672B2, “Method for producing hypophysis precursor tissue” (RIKEN, priority 2011, dated 2023):
Entries after “also recorded” stand apart in the source; their conditions may differ. Ends that are not written are not given here.

Tests used:
[1] = system: ES cell-derived ACTH-producing cells; experiment: In vitro ACTH secretion from ES cell-derived ACTH-producing cells by CRH, ELISA of culture supernatant; type: cell-based, mouse; conditions: 10 min, SAG- and DAPT-treated aggregates
Experimental: Mouse ES cells were differentiated into ACTH-producing cells by a SAG treatment and a DAPT treatment (total 22 days) using the method of Example 3. The aggregates were treated with CRH (corticotropin releasing factor) and ACTH secretion was quantified. To be specific, eight aggregates were placed in 500 μl of HBSS solution and, after pre-incubation at 37° C. for 10 min, CRH was added at a final concentration of 10-10000 ng/ml, and the aggregates were incubated for 10 min. Then, the culture supernatant was recovered and measured by ELISA method (FIG. 4a).

[2] = system: ES cell-derived ACTH-producing cells; experiment: as above; type: cell-based, mouse
[3] = system: mouse ES cell aggregates (10000 cells per aggregate); experiment: Induction of pituitary precursor tissue (Lim3) in mouse ES cell aggregates by hedgehog signal treatment; type: cell-based
Experimental: Aggregates of mouse ES cells were formed from 10000 cells per aggregate by using the SFEBq/gfCDM method (Wataya et al, 2008, PNAS vol. 105, pp. 11796-11801), and subjected to the floating-culture as in Example 1. Immediately after the start of the differentiation culture, SAG (Danjo et al, JNS, 2011, vol. 31, pp. 1919-1933), a hedgehog agonist, was added at 100 or 400 nM, and the aggregates were cultured for a total of 10-13 days. […] The expression of Lim3, a marker of pituitary precursor tissue (Rathke's pouch), and the like was confirmed by PCR or cytochemical staining of frozen section by the fluorescence antibody method. The expression of Lim3 was also confirmed using Lim3::GFP knocked-in ES cells.

[4] = system: ES cell-derived pituitary precursor tissue; experiment: Differentiation of ES cell-derived pituitary precursor tissue into ACTH-producing cells, fluorescence antibody staining; type: cell-based, mouse; conditions: for expression of Pitx1: DAPT, BIO or IWP2 treatment, day 26 (FIG. 3k)
Experimental: Furthermore, using gfCDM medium, the aggregates were cultured under 40% O2 and 5% CO2 for 12 days in total (total 22 days). Moreover, the aggregates were treated with Notch signal inhibitor, 10 μM DAPT, for one day during days 18-19 or days 20-21 of culture.

[5] = system: ES cell-derived pituitary precursor tissue; experiment: Differentiation of ES cell-derived pituitary precursor tissue into GH-, PRL-, LH-, FSH-, TSH-positive cells; type: cell-based, mouse
Experimental: Mouse ES cells were differentiated into pituitary precursor tissues by an SAG treatment (400 nM for 7 days and 100 nM for 3 days, total 10 days) using the method of Example 2. Furthermore, the aggregates were continuously floating-cultured under 40% O2 and 5% CO2. The medium used was gfCDM comprising corticosteroid (200 ng/ml hydrocortisone) and 1 nM insulin, gfCDM comprising estrogen (50 ng/ml estradiol) and 1 nM insulin, or culture supernatant (conditioned medium) of mouse feeder cell, PA6 cell, in gfCDM.
The expression of growth hormone (GH), prolactin (PRL), luteinizing hormone (LH), follicle-stimulating hormone (FSH), and thyroid-stimulating hormone (TSH) was confirmed by cytochemical staining of frozen section by the fluorescence antibody method.

hedgehog signaling = conditions: cited from earlier work
mouse ES cell aggregates = experiment: SFEBq/gfCDM floating culture of mouse ES cell aggregates, non-neural head ectoderm marker Pitx2 by qPCR; type: cell-based; conditions: BMP4 0.5 nM added to the medium, SFEBq/CDM-cultured ESCs
human ES cells = experiment: Floating aggregate culture of human ES cells with BMP4 and SAG, Pitx1 by qPCR and marker staining; type: cell-based; conditions: for E-cad positive non-neural ectoderm morphology: BMP-treated group, day 25 of culture
Experimental: Human ES cells (12000 cells) dispersed into single-cells with trypsin were subjected to floating aggregate culture in the presence of a […] ROCK inhibitor Y-27632 (Watanabe et al, Nature Neuroscience, 2007) in the same manner as in Example 1. The culture medium used was gfCDM added with 5% KSR. From day 3 of culture, 0.5 nM, 1.5 nM or 5.0 nM BMP4 was added to the culture medium, 1000 nM SAG was added from day 6 of culture, and the floating-culture was continued.

[6] = SAG 100 or 400 nM, PCR on day 10 and later

CRH: corticotropin releasing factor, hypothalamic hormone promoting ACTH secretion (SEEPPISLDLTFHLLREVLEMARAEQLAQQAHSNRKLMEII; ends and bridges not checked; UniProt P06850 154-194, looked up)
ACTH concentration of the culture supernatant ([1]; 10 ng/ml CRH): 1.4 pg/mL | ACTH concentration of the culture supernatant ([1]; 100 ng/ml CRH): 4 pg/mL | ACTH concentration of the culture supernatant ([1]; 1000 ng/ml CRH): 8.5 to 9.5 pg/mL | ACTH concentration of the culture supernatant ([1]; 10000 ng/ml CRH): 8.5 to 9.5 pg/mL | ACTH secretion ([2]; 1000 ng/ml CRH, aggregates without SAG treatment): did not show a significant increase | ACTH secretion ([2]; CRH added, aggregates with SAG treatment but without DAPT treatment): did not show much increase | induction of ACTH secretion by releasing hormones ([2]; SAG- and DAPT-treated aggregates (FIG. 4b)): CRH-specific; also recorded: enhancement of ACTH secretion

Cc1nn(-c2ccccc2)c(C)c1/C=N/N1CCN(Cc2ccccc2)CC1 [SANT-1]
effect on SAG induction of Lim3 ([3]; hedgehog receptor antagonist added to SAG-treated aggregates): inhibited

Cc1ccc2nc(NC(=O)CSc3nc4c(c(=O)n3-c3ccccc3)SCC4)sc2c1 [IWP2]
expression of Pitx1 [4]: tended to decrease

C[C@]12CCC(=O)C=C1CC[C@@H]1[C@@H]2[C@@H](O)C[C@@]2(C)[C@H]1CC[C@]2(O)C(=O)CO [hydrocortisone]
GH-positive cells in the aggregate ([5]; gfCDM with 200 ng/ml hydrocortisone and 1 nM insulin for 10 days from day 20): many GH-positive cells | effect of pre-treatment on the ACTH secretion promoting effect of CRH ([2]; hydrocortisone 100 ng/ml pre-treatment for 60 min): suppressed almost completely; also recorded: suppressed the enhancement of ACTH secretion by CRH

CNC1CCC(N(Cc2cccc(-c3ccncc3)c2)C(=O)c2sc3ccccc3c2Cl)CC1 (stereo not drawn) [SAG]
gene expression of Lim3 relative to SAG non-addition group [3, 6]: 7 fold | gene expression of Lim3 relative to undifferentiated ES cells [3, 6]: 15 fold | number of Lim3-positive epithelial pouch vesicles formed in the aggregate ([3]; SAG-addition group, further 3 days in gfCDM, total 13 days): 1-7 | activity compared with Shh (hedgehog signaling): several-fold stronger activity than Shh

O=C1Nc2cc(Br)ccc2/C1=C1/Nc2ccccc2/C1=N\O [BIO, 6-bromoindirubin-3′-oxime]
expression of Pitx1 [4]: greatly increased | further increase of GH-positive cells ([5]; BIO 250 nM during days 16-18 of culture, then hydrocortisone and insulin): 30-50%

C[C@H](NC(=O)Cc1cc(F)cc(F)c1)C(=O)N[C@H](C(=O)OC(C)(C)C)c1ccccc1 [DAPT]
expression of Tbx19 compared to without DAPT treatment ([4]; 10 μM DAPT for one day, days 18-19 or 20-21, SAG-treated aggregates): enhanced Tbx19 expression | percentage of ACTH-positive cells ([4]; 10 μM DAPT for one day, day 22): increased percentage | size of assemblies of Tbx19- and ACTH-highly positive cells ([4]; 10 μM DAPT treatment, assemblies in plural sites): > 30 cells | expression of Pitx1 [4]: did not increase, or rather decreased

B1: FGF8: FGF signal promoter (protein, UniProt P55075 23-233, looked up)
Fibroblast growth factor 8: QEGPGRGPALGRELASLFRAGREPQGVSQQHVREQSLVTDQLSRRLIRTYQLYSRTSGKHVQVLANKRINAMAEDGDPFAKLIVETDTFGSRVRVRGAETGLYICMNKKGKLIAKSNGKGKDCVFTEIVLENNYTALQNAKYEGWYMAFTRKGRPRKGSKTRQHQREVHFMKRLPRGHHTTEQSLRFEFLNYPPFTRSLRGSQRTWAPEPR
increase of tissues expressing Lim3 ([3]; FGF8 200 ng/ml during day 10-13, gfCDM without SAG): 30-50%

B2: BMP4: Bone Morphogenetic protein of the BMP2/4 group; exogenous BMP signal promoter (protein, UniProt P12644 293-408, looked up)
Bone morphogenetic protein 4: SPKHHSQRARKKNKNCRRHSLYVDFSDVGWNDWIVAPPGYQAFYCHGDCPFPLADHLNSTNHAIVQTLVNSVNSSIPKACCVPTELSAISMLYLDEYDKVVLKNYQEMVVEGCGCR
expression of Pitx2 (mouse ES cell aggregates): increases; also recorded: elevation of Pitx2 expression | expression of Pitx1 compared to the group without the treatment (human ES cells; 5 nM BMP4 from day 3, 12000 cells/aggregate, qPCR day 17): about 10 fold | result when started from 3000 and 6000 human ES cells (human ES cells; BMP4 added to the medium): equivalent results were obtained | E-cad positive non-neural ectoderm morphology (human ES cells): formation of E-cadherin^+ thickened non-neural ectoderm | E-cad positive non-neural ectoderm morphology (human ES cells; listed as BMP): a part thereof was thickened to show a placode-like structure
